Laboratory results reported in patent US20160303360A1, “Ultrasonic Transducer and Transdermal Delivery System” (Actuated Medical, Inc., priority 2015, published 2016).

Experiments:
[1] = pig, in vivo
[2] = in vivo; details: pig
[3] = human, in vivo, sc; cited from earlier work

Substance: enfuvirtide
- difference in TEWL between treatment site and control site [1]: not statistically different
- bioavailability [2]: ~30%
- patients experiencing injection site reaction [3]: up to 98%
